Laboratory results published in ChEMBL document CHEMBL1201862, “PubChem BioAssay data set” (2004).
Calls of active or inactive are those of the source.

What was measured:
Vero [1] = test: viability of Vero cells under compound – cytotoxicity control for flavivirus capping enzyme inhibitors (AID 588742); type: functional; settings: Chlorocebus sabaeus
[2] = biological target: T1, Long-chain-fatty-acid--AMP ligase FadD28 (Mycobacterium tuberculosis, UniProt P9WQ59); test: Fluorescence polarization aasay to screen for inhibitors that compete for the binding of FadD28 to a bisubstrate Measured in Biochemical System Using Plate Reader - 2147-01_Inhibitor_Dose_CherryPick_Activity.; type: functional, Mycobacterium tuberculosis H37Rv
T1 sequence (P9WQ59 whole entry): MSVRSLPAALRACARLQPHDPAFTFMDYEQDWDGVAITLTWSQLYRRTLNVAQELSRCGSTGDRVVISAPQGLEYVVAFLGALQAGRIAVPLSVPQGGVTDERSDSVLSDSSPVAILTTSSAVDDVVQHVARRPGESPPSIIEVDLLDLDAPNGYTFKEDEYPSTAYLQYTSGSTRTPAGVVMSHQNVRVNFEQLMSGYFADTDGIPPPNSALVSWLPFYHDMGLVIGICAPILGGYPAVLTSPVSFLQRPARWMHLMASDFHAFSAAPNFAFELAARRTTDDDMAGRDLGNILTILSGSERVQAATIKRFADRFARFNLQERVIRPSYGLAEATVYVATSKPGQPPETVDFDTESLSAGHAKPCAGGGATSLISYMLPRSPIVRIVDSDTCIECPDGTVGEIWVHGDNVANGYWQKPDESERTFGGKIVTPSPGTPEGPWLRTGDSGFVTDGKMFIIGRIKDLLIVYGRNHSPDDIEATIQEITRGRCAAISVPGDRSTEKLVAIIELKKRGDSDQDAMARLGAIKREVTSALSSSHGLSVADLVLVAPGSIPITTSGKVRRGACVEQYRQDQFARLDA

[3] = biological target: T2, DNA repair protein RAD52 homolog (Homo sapiens, UniProt P43351); type: functional, biochemical
T2 sequence (P43351 whole entry): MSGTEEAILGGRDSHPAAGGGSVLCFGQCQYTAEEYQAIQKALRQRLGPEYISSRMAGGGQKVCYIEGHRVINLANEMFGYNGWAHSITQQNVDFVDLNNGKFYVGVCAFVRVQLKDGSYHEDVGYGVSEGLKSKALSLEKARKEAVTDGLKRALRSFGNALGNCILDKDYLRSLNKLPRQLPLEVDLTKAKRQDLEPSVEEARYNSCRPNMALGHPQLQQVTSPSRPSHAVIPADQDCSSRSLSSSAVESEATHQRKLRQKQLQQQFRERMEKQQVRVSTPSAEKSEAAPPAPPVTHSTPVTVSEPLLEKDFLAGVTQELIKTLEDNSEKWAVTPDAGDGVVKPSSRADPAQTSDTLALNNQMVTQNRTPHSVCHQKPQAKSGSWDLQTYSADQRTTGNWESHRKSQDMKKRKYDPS

[4] = biological target: T3, Mannose-6-phosphate isomerase (Homo sapiens, UniProt P34949); test: MPI inhibition at elevated mannose 6-phosphate – biochemical, fluorescence intensity, high mannose 6-phosphate, primary screen (AID 1220)
T3 sequence (P34949 whole entry): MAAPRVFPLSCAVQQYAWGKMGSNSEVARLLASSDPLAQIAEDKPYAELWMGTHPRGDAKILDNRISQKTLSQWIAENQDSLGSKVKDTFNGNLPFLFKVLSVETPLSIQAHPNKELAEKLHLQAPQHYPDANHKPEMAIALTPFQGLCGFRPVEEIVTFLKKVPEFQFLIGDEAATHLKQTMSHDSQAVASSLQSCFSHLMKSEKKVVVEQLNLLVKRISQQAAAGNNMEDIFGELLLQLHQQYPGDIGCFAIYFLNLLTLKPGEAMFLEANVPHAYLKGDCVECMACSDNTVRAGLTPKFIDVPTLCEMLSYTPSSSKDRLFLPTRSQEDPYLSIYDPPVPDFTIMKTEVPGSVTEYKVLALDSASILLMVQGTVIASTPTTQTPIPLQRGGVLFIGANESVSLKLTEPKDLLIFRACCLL

[5] = biological target: Eukaryotic translation initiation factor 4E (Mus musculus, UniProt P63073); test: blockers of eIF4G binding by eIF4E – biochemical, TR-FRET, dose response (AID 855); type: functional;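 note: potency for disrupting eIF4E binding to eIF4GI seen as loss of FRET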
Eukaryotic translation initiation factor 4E, sequence (P63073 whole entry): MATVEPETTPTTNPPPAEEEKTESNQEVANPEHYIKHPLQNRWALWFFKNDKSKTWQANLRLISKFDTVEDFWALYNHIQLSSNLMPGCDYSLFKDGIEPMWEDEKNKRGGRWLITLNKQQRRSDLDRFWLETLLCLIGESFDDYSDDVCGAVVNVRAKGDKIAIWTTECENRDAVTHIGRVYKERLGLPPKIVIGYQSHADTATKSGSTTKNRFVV

[6] = biological target: Voltage-dependent T-type calcium channel subunit alpha-1H (Homo sapiens, UniProt O95180); type: functional;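 note: channel activity triggered by adding a high calcium stimulation buffer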
Voltage-dependent T-type calcium channel subunit alpha-1H, sequence (O95180 whole entry): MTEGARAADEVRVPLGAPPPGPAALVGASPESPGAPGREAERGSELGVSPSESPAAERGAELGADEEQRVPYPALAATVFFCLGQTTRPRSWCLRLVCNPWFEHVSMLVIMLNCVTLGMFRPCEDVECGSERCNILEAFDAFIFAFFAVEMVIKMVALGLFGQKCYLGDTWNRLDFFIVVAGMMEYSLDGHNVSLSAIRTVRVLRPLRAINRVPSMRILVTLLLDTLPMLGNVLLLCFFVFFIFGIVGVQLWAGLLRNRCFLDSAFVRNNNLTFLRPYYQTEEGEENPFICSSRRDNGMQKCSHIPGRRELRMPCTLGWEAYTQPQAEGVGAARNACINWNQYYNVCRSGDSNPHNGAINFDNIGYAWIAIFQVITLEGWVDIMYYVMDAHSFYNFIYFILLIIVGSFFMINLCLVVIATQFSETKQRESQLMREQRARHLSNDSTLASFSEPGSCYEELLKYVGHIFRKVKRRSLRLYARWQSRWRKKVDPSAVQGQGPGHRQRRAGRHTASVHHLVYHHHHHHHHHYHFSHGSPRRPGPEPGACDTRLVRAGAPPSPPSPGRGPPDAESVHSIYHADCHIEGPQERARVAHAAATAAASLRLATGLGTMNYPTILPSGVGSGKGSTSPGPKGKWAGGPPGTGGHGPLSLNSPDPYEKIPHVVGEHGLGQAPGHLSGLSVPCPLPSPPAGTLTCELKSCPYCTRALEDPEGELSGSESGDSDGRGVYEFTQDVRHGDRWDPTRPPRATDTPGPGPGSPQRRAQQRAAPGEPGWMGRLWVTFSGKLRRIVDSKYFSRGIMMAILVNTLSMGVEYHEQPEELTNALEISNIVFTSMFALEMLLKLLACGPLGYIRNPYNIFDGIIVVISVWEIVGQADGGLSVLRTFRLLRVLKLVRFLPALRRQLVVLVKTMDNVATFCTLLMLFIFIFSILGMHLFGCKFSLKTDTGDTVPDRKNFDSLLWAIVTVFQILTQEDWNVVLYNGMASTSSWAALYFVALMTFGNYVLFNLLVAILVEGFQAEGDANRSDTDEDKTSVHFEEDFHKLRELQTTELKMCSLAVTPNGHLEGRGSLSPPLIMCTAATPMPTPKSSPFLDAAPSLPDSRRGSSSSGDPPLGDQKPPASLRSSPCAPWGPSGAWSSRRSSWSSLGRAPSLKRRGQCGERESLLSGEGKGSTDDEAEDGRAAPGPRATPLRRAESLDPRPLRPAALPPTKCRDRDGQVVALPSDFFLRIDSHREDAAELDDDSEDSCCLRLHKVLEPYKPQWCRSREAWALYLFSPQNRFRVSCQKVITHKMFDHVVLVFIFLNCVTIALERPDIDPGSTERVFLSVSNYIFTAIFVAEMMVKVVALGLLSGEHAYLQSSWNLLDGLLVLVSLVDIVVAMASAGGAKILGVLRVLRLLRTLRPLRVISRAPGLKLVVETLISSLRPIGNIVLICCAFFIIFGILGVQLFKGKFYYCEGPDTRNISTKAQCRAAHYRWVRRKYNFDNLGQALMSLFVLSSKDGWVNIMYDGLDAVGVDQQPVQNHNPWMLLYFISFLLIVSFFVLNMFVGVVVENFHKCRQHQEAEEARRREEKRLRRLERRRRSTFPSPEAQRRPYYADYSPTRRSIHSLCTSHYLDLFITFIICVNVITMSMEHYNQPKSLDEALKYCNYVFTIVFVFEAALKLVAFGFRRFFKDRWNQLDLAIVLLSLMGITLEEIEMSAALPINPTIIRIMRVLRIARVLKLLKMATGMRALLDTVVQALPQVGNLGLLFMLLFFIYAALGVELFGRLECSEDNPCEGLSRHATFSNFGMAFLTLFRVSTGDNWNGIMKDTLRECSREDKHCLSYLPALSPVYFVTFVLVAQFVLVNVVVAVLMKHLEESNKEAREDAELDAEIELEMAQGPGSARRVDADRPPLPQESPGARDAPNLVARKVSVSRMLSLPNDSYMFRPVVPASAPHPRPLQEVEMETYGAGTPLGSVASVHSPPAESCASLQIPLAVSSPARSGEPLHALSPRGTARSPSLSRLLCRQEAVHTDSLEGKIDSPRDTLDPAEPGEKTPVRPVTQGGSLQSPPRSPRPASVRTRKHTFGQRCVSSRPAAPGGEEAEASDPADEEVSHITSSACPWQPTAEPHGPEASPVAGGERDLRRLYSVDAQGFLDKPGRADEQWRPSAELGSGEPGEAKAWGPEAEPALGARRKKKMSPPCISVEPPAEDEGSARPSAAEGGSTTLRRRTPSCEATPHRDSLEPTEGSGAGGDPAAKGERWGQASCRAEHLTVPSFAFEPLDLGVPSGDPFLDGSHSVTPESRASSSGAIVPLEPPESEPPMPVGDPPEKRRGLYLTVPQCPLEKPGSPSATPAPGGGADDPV

[7] = biological target: T4, Short transient receptor potential channel 4 (Mus musculus, UniProt Q9QUQ5); test: calcium entry via TRPC4 opening agents – cell-based, HEK293 TRPC4/mu-opioid, Fluo-4 calcium, dose response (AID 434937); type: functional
T4 sequence (Q9QUQ5 whole entry): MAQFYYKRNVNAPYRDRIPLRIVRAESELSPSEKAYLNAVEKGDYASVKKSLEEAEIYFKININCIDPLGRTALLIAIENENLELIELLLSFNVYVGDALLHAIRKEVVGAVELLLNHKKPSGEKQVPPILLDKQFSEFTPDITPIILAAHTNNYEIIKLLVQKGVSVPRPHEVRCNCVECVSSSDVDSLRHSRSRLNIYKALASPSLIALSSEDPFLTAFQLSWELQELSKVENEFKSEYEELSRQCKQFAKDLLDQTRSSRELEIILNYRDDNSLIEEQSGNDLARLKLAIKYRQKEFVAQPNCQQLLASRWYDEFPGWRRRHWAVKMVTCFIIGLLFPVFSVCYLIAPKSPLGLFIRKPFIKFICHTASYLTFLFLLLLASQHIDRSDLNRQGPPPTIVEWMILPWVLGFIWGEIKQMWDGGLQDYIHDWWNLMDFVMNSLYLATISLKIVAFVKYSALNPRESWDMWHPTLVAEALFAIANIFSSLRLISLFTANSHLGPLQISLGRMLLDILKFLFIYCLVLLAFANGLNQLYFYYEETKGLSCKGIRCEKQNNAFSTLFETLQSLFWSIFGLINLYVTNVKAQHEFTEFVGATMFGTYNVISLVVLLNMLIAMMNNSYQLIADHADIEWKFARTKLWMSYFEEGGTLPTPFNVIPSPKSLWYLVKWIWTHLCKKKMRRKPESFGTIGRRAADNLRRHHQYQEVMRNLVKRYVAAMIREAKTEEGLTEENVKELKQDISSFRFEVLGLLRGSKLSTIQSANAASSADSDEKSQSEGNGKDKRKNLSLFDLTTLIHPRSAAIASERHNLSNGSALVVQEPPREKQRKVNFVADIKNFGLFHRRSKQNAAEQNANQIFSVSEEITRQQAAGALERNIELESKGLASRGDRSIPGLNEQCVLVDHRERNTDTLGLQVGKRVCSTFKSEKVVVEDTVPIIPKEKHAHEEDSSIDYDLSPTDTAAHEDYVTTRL

Estrogen receptor beta = Estrogen receptor beta (Homo sapiens, UniProt Q92731);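 note: recombinant ER-beta bound to coactivator SRC1 peptide in presence of estradiol agonist; inhibitors block coactivator peptide binding and lower the FRET signal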
Estrogen receptor beta, sequence (Q92731 whole entry): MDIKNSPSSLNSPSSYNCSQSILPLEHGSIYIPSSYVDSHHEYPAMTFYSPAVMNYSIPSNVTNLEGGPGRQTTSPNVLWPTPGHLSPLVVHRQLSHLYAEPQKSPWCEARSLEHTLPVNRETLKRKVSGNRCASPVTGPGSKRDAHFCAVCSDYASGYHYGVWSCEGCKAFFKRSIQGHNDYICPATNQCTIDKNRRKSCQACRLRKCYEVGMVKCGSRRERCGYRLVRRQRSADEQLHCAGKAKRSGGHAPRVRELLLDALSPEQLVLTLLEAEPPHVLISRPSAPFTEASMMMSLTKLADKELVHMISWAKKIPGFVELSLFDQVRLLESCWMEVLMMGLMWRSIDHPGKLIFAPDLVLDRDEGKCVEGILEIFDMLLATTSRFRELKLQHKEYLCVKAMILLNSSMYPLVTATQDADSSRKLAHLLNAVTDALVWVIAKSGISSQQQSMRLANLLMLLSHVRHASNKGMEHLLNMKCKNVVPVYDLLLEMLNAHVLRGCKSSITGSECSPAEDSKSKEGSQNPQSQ

SUMO-activating enzyme = SUMO-activating enzyme (Homo sapiens, UniProt Q9UBT2); test: blockers of UBC9-mediated SUMO conjugation – biochemical, AlphaScreen, SUMOylation inhibitor project, confirmation (AID 2018); type: functional
SUMO-activating enzyme, sequence (Q9UBE0 whole entry): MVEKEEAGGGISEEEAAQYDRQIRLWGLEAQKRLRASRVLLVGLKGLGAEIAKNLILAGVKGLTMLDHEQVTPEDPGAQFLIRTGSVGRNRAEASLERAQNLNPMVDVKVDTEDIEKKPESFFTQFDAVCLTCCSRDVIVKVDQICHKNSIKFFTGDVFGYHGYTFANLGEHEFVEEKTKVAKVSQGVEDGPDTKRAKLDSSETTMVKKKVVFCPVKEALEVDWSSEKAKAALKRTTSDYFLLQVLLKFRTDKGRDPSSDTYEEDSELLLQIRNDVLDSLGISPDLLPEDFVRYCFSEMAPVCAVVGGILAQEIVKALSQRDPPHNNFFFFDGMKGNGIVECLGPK
SUMO-activating enzyme, sequence (Q9UBT2 whole entry): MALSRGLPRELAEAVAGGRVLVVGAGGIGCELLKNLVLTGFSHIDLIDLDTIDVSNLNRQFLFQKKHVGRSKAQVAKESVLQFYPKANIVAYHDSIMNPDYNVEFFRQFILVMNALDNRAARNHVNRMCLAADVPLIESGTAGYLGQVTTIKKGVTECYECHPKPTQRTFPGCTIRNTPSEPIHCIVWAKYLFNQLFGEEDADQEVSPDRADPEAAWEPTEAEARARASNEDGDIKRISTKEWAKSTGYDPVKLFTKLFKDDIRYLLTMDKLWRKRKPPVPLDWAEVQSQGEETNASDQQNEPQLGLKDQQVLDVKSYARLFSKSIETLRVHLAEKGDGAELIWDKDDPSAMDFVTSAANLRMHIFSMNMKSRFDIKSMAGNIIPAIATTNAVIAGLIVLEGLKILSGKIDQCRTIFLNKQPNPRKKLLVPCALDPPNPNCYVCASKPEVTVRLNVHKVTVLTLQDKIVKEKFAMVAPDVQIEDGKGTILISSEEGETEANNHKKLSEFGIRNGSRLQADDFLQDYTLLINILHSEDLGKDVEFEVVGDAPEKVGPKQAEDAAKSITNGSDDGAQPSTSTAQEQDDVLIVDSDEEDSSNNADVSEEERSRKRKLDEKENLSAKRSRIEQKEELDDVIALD

Vero [8] = test: cells; type: functional; settings: Chlorocebus sabaeus
[9] = viability of uninfected HEp-2 cells – cell-based, HTS, cytotoxicity control for RSV inhibitor project, dose response (AID 2410); type: functional; settings: human respiratory syncytial virus
Vero [10] = test: cells; type: functional, cell-based; settings: Chlorocebus sabaeus
[11] = biological target: T5, Histone-lysine N-methyltransferase NSD2 (Homo sapiens, UniProt O96028); type: biochemical
T5 sequence (O96028 whole entry): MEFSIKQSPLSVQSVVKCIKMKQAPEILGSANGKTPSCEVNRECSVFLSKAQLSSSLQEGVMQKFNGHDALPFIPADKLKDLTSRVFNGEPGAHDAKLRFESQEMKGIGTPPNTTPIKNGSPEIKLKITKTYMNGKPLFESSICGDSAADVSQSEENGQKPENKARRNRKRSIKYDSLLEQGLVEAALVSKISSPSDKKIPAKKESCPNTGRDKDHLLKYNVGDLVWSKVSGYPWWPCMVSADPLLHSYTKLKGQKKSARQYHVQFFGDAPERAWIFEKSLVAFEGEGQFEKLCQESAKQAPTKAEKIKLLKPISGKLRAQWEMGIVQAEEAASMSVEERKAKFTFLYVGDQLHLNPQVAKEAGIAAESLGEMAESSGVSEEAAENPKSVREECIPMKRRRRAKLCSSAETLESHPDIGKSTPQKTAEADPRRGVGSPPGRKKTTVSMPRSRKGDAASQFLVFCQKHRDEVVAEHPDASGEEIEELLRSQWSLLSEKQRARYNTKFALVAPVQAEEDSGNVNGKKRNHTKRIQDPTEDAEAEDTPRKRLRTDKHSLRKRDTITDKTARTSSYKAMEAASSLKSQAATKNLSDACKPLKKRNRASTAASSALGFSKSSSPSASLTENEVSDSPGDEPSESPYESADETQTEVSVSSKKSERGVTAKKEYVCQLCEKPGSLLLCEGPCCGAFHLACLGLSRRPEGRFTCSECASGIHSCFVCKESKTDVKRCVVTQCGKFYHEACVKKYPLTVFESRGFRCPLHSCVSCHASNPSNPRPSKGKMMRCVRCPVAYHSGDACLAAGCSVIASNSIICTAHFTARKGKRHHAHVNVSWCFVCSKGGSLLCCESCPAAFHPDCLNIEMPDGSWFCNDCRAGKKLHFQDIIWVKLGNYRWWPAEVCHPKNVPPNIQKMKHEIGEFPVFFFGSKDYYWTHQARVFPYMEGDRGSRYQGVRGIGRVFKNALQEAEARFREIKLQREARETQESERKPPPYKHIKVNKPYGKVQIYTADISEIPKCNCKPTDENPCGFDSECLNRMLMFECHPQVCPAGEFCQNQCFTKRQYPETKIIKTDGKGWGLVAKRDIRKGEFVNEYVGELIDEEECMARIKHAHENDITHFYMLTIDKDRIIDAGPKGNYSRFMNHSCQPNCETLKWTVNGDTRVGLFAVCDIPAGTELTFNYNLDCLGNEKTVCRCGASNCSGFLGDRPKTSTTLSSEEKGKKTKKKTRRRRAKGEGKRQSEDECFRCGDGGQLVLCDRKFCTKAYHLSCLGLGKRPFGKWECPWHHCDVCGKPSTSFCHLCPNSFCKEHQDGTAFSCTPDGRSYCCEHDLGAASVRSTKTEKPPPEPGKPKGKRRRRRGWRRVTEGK

[12] = biological target: FAD-linked sulfhydryl oxidase ALR (Homo sapiens, UniProt P55789); test: ALR-catalysed DTT oxidation blockers – biochemical, H2O2 detection, luminescence, cherry-pick, dose response (AID 493248)
FAD-linked sulfhydryl oxidase ALR, sequence (P55789 whole entry): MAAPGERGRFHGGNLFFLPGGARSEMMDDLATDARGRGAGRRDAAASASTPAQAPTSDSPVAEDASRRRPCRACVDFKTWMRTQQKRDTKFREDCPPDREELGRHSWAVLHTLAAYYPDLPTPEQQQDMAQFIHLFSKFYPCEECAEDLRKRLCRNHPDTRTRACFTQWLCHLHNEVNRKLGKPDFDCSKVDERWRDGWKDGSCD

SN12K1 = test: cells; type: functional; settings: Homo sapiens
P388/ADR = test: cells; type: functional; settings: Mus musculus
P388 = test: cells; type: functional; settings: Mus musculus

SMILES: O=C(Nc1ccc2c(c1)CCCN2C(=O)c1cccs1)c1ccccc1
- CC50 (Vero [1]): > 40 µM (active)

SMILES: CCc1cccc(NC(=O)CN2C(=O)NC3(CCCCCCC3)C2=O)c1
- AC50 [2]: > 100 µM (inactive)

SMILES: CCCCN=C(S)Nc1ccc2nc(N3CCN(CC)CC3)cc(C)c2c1
- AC50 [3]: 25.9 µM (active)

SMILES: COC(=O)C1=C(C(=O)OC)SC(=C2C(=S)C(C)(C)N(C(=O)C3CC3)c3ccccc32)S1
- IC50 [4]: 6.47 µM (active)

SMILES: Cc1cccc(S(=O)(=O)Nc2nc3ccccc3nc2Nc2cccc(C(=O)O)c2)c1
- AC50 [2]: 91.1 µM (active)

SMILES: O=S(=O)(NCCc1ccc(F)cc1)c1cccc2cccnc12
- IC50 [5]: 50 µM (inactive)

SMILES: O=C(CS(=O)(=O)Cc1ccccc1)Nc1ccc(S(=O)(=O)N2CCCCCC2)cc1
- AC50 [2]: 80.8 µM (active)
- EC50 [6]: 4.62 µM (active)

SMILES: COc1ccc(C(c2sc3nc(C)nn3c2O)N2CCc3ccccc3C2)cc1 (stereo not given)
- IC50 [4]: 9.88 µM (active)

SMILES: Cc1cc(-c2nn(-c3ccccc3F)cc2CNCCc2c[nH]cn2)c(C)s1
- EC50 [7]: 0.0427 µM (active)

SMILES: O=C(NCc1ccco1)C1(S(=O)(=O)c2ccc(Cl)cc2)CC1
- IC50 (Estrogen receptor beta): > 50 µM (not active)

SMILES: CC1CCCN(c2nc3ccccc3nc2C(C#N)S(=O)(=O)c2ccccc2)C1 (stereo not given)
- IC50 (SUMO-activating enzyme): 22.1 µM (active)

SMILES: Cc1ccc2cc(C#N)c(NCCNC(S)=NCCCN(C)C)nc2c1C
- CC50 (Vero [8]): 15.1 µM (active)
- AC50 [3]: 16.9 µM (active)
- CC50 [9]: 13.2 µM (active)
- IC50 (Vero [10]): > 25 µM (active)

SMILES: CCN(CC)CCN=C(S)Nc1ccc2nc(N3CCCC3)cc(C)c2c1
- AC50 [11]: > 20 µM (inactive)
- AC50 [3]: 3.9 µM (active)

SMILES: CCOC(=O)CCC(NC(=O)c1ccc(NCN2C(=O)CCC2=O)cc1)C(=O)OCC (stereo not given)
- IC50 (Estrogen receptor beta): > 50 µM (not active)

SMILES: N=C1/C(=C/c2cccn2Cc2ccc(Cl)cc2)C(=O)N=C2SC=CN12
- IC50 (SUMO-activating enzyme): 47.6 µM (active)

SMILES: O=C(CN1C(=O)NC2(CCCc3ccccc32)C1=O)c1ccc(Br)cc1 (stereo not given)
- AC50 [2]: > 100 µM (inactive)

SMILES: O=C(c1cccn2c(=O)c3cc(Cl)ccc3nc12)N1CCN(Cc2ccc3c(c2)OCO3)CC1
- IC50 [5]: > 64 µM (inactive)

SMILES: Cc1ccc(C(=O)Nc2nc(-c3cccnc3)cs2)o1
- IC50 (Estrogen receptor beta): 21.2 µM (active)

SMILES: O=C(O)C1C2C=CC(C2)C1C(=O)NC1CCN(Cc2ccccc2)CC1 (stereo not given)
- EC50 [7]: 5.31 µM (active)

SMILES: O=C(O)c1ccc2c(c1)C(=O)N(c1ccc(Nc3ccccc3)cc1)C2=O
- AC50 [12]: 25.8 µM (active)
- AC50 [2]: > 100 µM (inactive)

SMILES: CCN1CCCC1CNC(=O)c1cc2c(OC)cccc2[nH]1 (stereo not given)
- EC50 [7]: 6.68 µM (active)

SMILES: O=C(OCC1CC(c2ccccn2)=NO1)c1ccc(Br)cc1 (stereo not given)
- IC50 [5]: > 64 µM (inactive)

SMILES: Nc1ncnc2c1ncn2[C@@H]1O[C@H](CNCc2ccc(OCC(=O)Nc3ccccn3)cc2)[C@@H](O)[C@H]1O
- AC50 [2]: > 100 µM (inactive)

SMILES: O=C(N[C@@H](c1ccccc1)[C@@H](O)C(=O)OCc1ccc2c(c1)OCO2)c1ccccc1
- GI50 (SN12K1): > 100 µM (inactive)
- GI50 (P388/ADR): 72.6 µM (inactive)
- GI50 (P388): 64.7 µM (inactive)

SMILES: CC1C(=O)CC(c2cccs2)N(N=O)C1c1cccs1 (stereo not given)
- GI50 (SN12K1): 57.8 µM (inactive)
- GI50 (P388/ADR): 17.3 µM (inactive)
- GI50 (P388): 20.4 µM (inactive)
